Test results taken from patent EP0013742A1, “Substituted sulfonic acid anilides, their preparation and use” (BASF Aktiengesellschaft, priority 1979, dated 1980).

Experiments:
Sommerweizen (Kolibri) = assay: Growth height reduction in cereals, greenhouse, foliar spray (Beispiel A); type: in vivo, Weizen (Kolibri); details: 18 days growth; for Pflanzenhöhe cm: sprayed at 10 cm plant height, 100 plants measured; for Pflanzenhöhe relativ: untreated control = 100
Description: (§1) Im Gewächshaus wurden die Getreidearten Weizen (Kolibri) und Gerste (Union) in Kunststoffschalen von 11,5 cm Durch- messer in Torfkultursubstrat, welches ausreichend mit Nährstoffen versorgt war, eingesät. Die Wirkstoffe wurden in unterschiedlichen Aufwandmengen über das Blatt zugeführt. Die Applikation erfolgte bei einer Wuchshöhe der Pflanzen von 10 cm in üblicher Weise durch Spritzen.
(§2) Während der Wachstumszeit von 18 Tagen zeigten die behandelten Pflanzen gegenüber der unbehandelten Kontrolle ein deutlich geringeres Längenwachstum, was durch die abschließenden Längenmessungen bestätigt werden konnte. Hierbei wurden von jeder Behandlungsreihe 100 Pflanzen gemessen.

Rasen = assay: Effect on grass/lawn, vegetation test in Mitscherlich pots (Beispiel B); type: in vivo; details: for 1. Schnitt Pflanzenhöhe relativ / 1. Schnitt Pflanzenhöhe cm: 20 days after treatment; for 1. Schnitt Pflanzenhöhe relativ / 2. Schnitt Pflanzenhöhe relativ: untreated control = 100; for 2. Schnitt Pflanzenhöhe cm: regrowth over 4 weeks after 1st cut (after-effect); for 2. Schnitt Pflanzenhöhe relativ: regrowth over 4 weeks after 1st cut; for 1. Schnitt Pflanzenhöhe cm: sprayed at 4 cm height
Description: In einem Vegetationsversuch in Mitscherlichgefäßen wurde auf einem lehmigen Sandboden Rasen der folgenden Standard--Mischung angesät: Agrostis tenuis 10 %, Cynosurus cristatus 10 %, Festuca rubra 15 %, Lolium perenne 35 % und Poa pratensis 30 %. Die Düngung wurde mit 1,5 g N als Ammonnitrat und 1 ^g P205 als sec. Kaliumphosphat vorgenommen. Nach 2 vorangegangenen Schnitten wurden die Wirkstoffe in verschiedenen Aufwandmengen bei einer Wuchshöhe von 4 cm in üblicher Weise gespritzt. 20 Tage nach der Behandlung wurde die Wuchshöhe bestimmt; nach erfolgtem 1. Schnitt wurde der Wiederaufwuchs über 4 Wochen bis hin zum 2. Schnitt beobachtet und ebenfalls Längenmessungen durchgeführt, um die Nachwirkung zu überprüfen. Gegenüber der Kontrolle reagierten die Pflanzen aus den Behandlungsreihen mit sehr starken Kürzungen. Die Nachwirkung ist besser zu beurteilen als bei der zum Vergleich herangezogenen bekannten Substanz, wie nachstehende Tabelle zeigt.

Sommergerste (Union) = assay: Growth height reduction in cereals, greenhouse, foliar spray (Beispiel A); type: in vivo, Gerste (Union); details: for Pflanzenhöhe cm: sprayed at 10 cm plant height, 18 days growth; for Pflanzenhöhe relativ: untreated control = 100
Description: as §1, §2

SMILES	Pflanzenhöhe cm (Sommerweizen (Kolibri); Aufwandmenge 1,5 kg/ha)	Pflanzenhöhe relativ (Sommerweizen (Kolibri); Aufwandmenge 1,5 kg/ha)	Pflanzenhöhe cm (Sommerweizen (Kolibri); Aufwandmenge 6,0 kg/ha)	Pflanzenhöhe relativ (Sommerweizen (Kolibri); Aufwandmenge 6,0 kg/ha)	1. Schnitt Pflanzenhöhe relativ (Rasen; Aufwandmenge 0,5 kg/ha)	2. Schnitt Pflanzenhöhe cm (Rasen; Aufwandmenge 0,5 kg/ha)	2. Schnitt Pflanzenhöhe relativ (Rasen; Aufwandmenge 0,5 kg/ha)	1. Schnitt Pflanzenhöhe cm (Rasen; Aufwandmenge 0,5 kg/ha)	1. Schnitt Pflanzenhöhe relativ (Rasen; Aufwandmenge 0,75 kg/ha)	2. Schnitt Pflanzenhöhe cm (Rasen; Aufwandmenge 0,75 kg/ha)	2. Schnitt Pflanzenhöhe relativ (Rasen; Aufwandmenge 0,75 kg/ha)	1. Schnitt Pflanzenhöhe cm (Rasen; Aufwandmenge 0,75 kg/ha)	Pflanzenhöhe cm (Sommergerste (Union); Aufwandmenge 0,25 kg/ha)	Pflanzenhöhe relativ (Sommergerste (Union); Aufwandmenge 0,25 kg/ha)	Pflanzenhöhe cm (Sommergerste (Union); Aufwandmenge 0,75 kg/ha)	Pflanzenhöhe relativ (Sommergerste (Union); Aufwandmenge 0,75 kg/ha)	Pflanzenhöhe cm (Sommergerste (Union); Aufwandmenge 1,50 kg/ha)	Pflanzenhöhe relativ (Sommergerste (Union); Aufwandmenge 1,50 kg/ha)	Pflanzenhöhe cm (Sommergerste (Union); Aufwandmenge 3,00 kg/ha)	Pflanzenhöhe relativ (Sommergerste (Union); Aufwandmenge 3,00 kg/ha)
CC(=O)Nc1ccc(C)c(NS(=O)(=O)C(F)(F)F)c1 [Fluoridamid, 5-Acetam.ido-2-methyl-trifluormethansulfonsäureanilid, reference compound]	17,0 cm	63,4	15,0 cm	56,0	94,4	11,0 cm	100	13,5 cm	87,4	10,0 cm	90,9	12,5 cm	–	–	–	–	–	–	–	–
CC(=O)Nc1cc(N(C#N)S(=O)(=O)C(F)(F)F)c(C)cc1C [Beispiel 1, 5-Acetamido-N -cyano-2,4-dimethyl-trifluormethansulfonsäureanilid]	13,0 cm	48,5	12,6 cm	46,6	38,5	8,0 cm	72,7	5,5 cm	31,5	7,0 cm	63,6	4,5 cm	–	–	–	–	–	–	–	–
CC(=O)Nc1ccc(C)c(N(C#N)S(=O)(=O)C(F)(F)F)c1 [Beispiel 67]	13,5 cm	50,4	12,0 cm	44,8	97,4	11,0 cm	100	14,0 cm	87,4	9,0 cm	81,8	12,5 cm	–	–	–	–	–	–	–	–
CC(=O)Nc1cc(NS(=O)(=O)C(F)(F)F)c(C)cc1C [Mefluidide, 5-Acetamido-2,4--dimethyl-trifluormethansulfonsäureanilid]	–	–	–	–	–	–	–	–	–	–	–	–	27,0 cm	96,4	18,0 cm	64,3	17,5 cm	62,5	16,0 cm	57,1
